Assay results reported in PubChem BioAssay (NCI).
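Interpolation was linear, between the two tested concentrations surrounding the appropriate level; five concentrations were tested over 48 hours in 96-well plates. TGI: total growth inhibition.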

Columns and labels:
Assay in all cases: NCI tumour cell line growth inhibition, 48 h
SK-OV-3 ovarian = system: SK-OV-3 ovarian
OVCAR-8 ovarian = system: OVCAR-8 ovarian
HT29 colon = system: HT29 colon
HCC-2998 colon = system: HCC-2998 colon
ACHN renal = system: ACHN renal
SNB-75 CNS = system: SNB-75 CNS
NCI-H226 lung = system: NCI-H226 lung
A549 NSCLC = system: A549 NSCLC
MDA-N = system: MDA-N
HCT-15 colon = system: HCT-15 colon
TK-10 renal = system: TK-10 renal
MOLT-4 leukemia = system: MOLT-4 leukemia
UACC-257 melanoma = system: UACC-257 melanoma
DU-145 prostate = system: DU-145 prostate
U251 CNS = system: U251 CNS
KM12 colon = system: KM12 colon
HL-60(TB) leukemia = system: HL-60(TB) leukemia
MDA-MB-231 breast = system: MDA-MB-231 breast
SR leukemia = system: SR leukemia
786-0 renal = system: 786-0 renal
T-47D breast = system: T-47D breast
OVCAR-3 ovarian = system: OVCAR-3 ovarian
HOP-92 NSCLC = system: HOP-92 NSCLC
COLO 205 colon = system: COLO 205 colon
SNB-19 CNS = system: SNB-19 CNS
SW-620 colon = system: SW-620 colon
HOP-62 NSCLC = system: HOP-62 NSCLC
NCI-H460 lung = system: NCI-H460 lung
SK-MEL-28 melanoma = system: SK-MEL-28 melanoma
A498 renal = system: A498 renal
SK-MEL-2 melanoma = system: SK-MEL-2 melanoma
M14 melanoma = system: M14 melanoma
IGROV1 ovarian = system: IGROV1 ovarian
OVCAR-5 ovarian = system: OVCAR-5 ovarian
HS 578T breast = system: HS 578T breast
MALME-3M melanoma = system: MALME-3M melanoma
UO-31 renal = system: UO-31 renal
SK-MEL-5 melanoma = system: SK-MEL-5 melanoma
MCF7 breast = system: MCF7 breast
SF-539 CNS = system: SF-539 CNS
OVCAR-4 ovarian = system: OVCAR-4 ovarian
CCRF-CEM leukemia = system: CCRF-CEM leukemia
EKVX NSCLC = system: EKVX NSCLC
NCI/ADR-RES ovarian = system: NCI/ADR-RES ovarian
MDA-MB-435 = system: MDA-MB-435
SF-268 CNS = system: SF-268 CNS
HCT-116 colon = system: HCT-116 colon
NCI-H522 lung = system: NCI-H522 lung
SN12C renal = system: SN12C renal
K-562 leukemia = system: K-562 leukemia
UACC-62 melanoma = system: UACC-62 melanoma
LOX IMVI melanoma = system: LOX IMVI melanoma
NCI-H23 lung = system: NCI-H23 lung
CAKI-1 renal = system: CAKI-1 renal
PC-3 prostate = system: PC-3 prostate
BT-549 breast = system: BT-549 breast
RPMI-8226 leukemia = system: RPMI-8226 leukemia
RXF 393 renal = system: RXF 393 renal
SF-295 CNS = system: SF-295 CNS

CC(C)=CCS(=O)c1ccccc1NC1=CC(=O)CC(C)(C)C1 (stereo not given)
TGI (SK-OV-3 ovarian): > 100 µM | TGI (OVCAR-8 ovarian): > 100 µM | TGI (HT29 colon): > 100 µM | TGI (HCC-2998 colon): > 100 µM | TGI (ACHN renal): > 100 µM | TGI (SNB-75 CNS): > 100 µM | TGI (NCI-H226 lung): > 100 µM | TGI (A549 NSCLC): > 100 µM | TGI (MDA-N): > 100 µM | TGI (HCT-15 colon): 28.7 µM | TGI (TK-10 renal): > 100 µM | TGI (MOLT-4 leukemia): > 100 µM | TGI (UACC-257 melanoma): > 100 µM | TGI (DU-145 prostate): > 100 µM | TGI (U251 CNS): 2.42 µM | TGI (KM12 colon): > 100 µM | TGI (HL-60(TB) leukemia): > 100 µM | TGI (MDA-MB-231 breast): > 100 µM | TGI (SR leukemia): > 100 µM | TGI (786-0 renal): > 100 µM | TGI (T-47D breast): > 100 µM | TGI (OVCAR-3 ovarian): > 100 µM | TGI (HOP-92 NSCLC): > 100 µM | TGI (COLO 205 colon): > 100 µM | TGI (SNB-19 CNS): > 100 µM | TGI (SW-620 colon): > 100 µM | TGI (HOP-62 NSCLC): 0.855 µM | TGI (NCI-H460 lung): > 100 µM | TGI (SK-MEL-28 melanoma): > 100 µM | TGI (A498 renal): > 100 µM | TGI (SK-MEL-2 melanoma): > 100 µM | TGI (M14 melanoma): > 100 µM | TGI (IGROV1 ovarian): > 100 µM | TGI (OVCAR-5 ovarian): > 100 µM | TGI (HS 578T breast): > 100 µM | TGI (MALME-3M melanoma): > 100 µM | TGI (UO-31 renal): > 100 µM | TGI (SK-MEL-5 melanoma): > 100 µM | TGI (MCF7 breast): > 100 µM | TGI (SF-539 CNS): > 100 µM | TGI (OVCAR-4 ovarian): > 100 µM | TGI (CCRF-CEM leukemia): > 100 µM | TGI (EKVX NSCLC): > 100 µM | TGI (NCI/ADR-RES ovarian): > 100 µM | TGI (MDA-MB-435): > 100 µM | TGI (SF-268 CNS): > 100 µM | TGI (HCT-116 colon): > 100 µM | TGI (NCI-H522 lung): > 100 µM | TGI (SN12C renal): > 100 µM | TGI (K-562 leukemia): > 100 µM | TGI (UACC-62 melanoma): > 100 µM | TGI (LOX IMVI melanoma): > 100 µM | TGI (NCI-H23 lung): > 100 µM | TGI (CAKI-1 renal): > 100 µM | TGI (PC-3 prostate): > 100 µM | TGI (BT-549 breast): > 100 µM | TGI (RPMI-8226 leukemia): > 100 µM | TGI (RXF 393 renal): > 100 µM

O=C(c1ccccc1)c1c(-c2ccccc2)[nH]n(-c2ccc([N+](=O)[O-])cc2)c(=O)c1=O
TGI (SK-OV-3 ovarian): > 100 µM | TGI (OVCAR-8 ovarian): > 100 µM | TGI (HT29 colon): > 100 µM | TGI (HCC-2998 colon): > 100 µM | TGI (ACHN renal): > 100 µM | TGI (NCI-H226 lung): > 100 µM | TGI (A549 NSCLC): > 100 µM | TGI (MDA-N): > 100 µM | TGI (HCT-15 colon): > 100 µM | TGI (TK-10 renal): > 100 µM | TGI (MOLT-4 leukemia): > 100 µM | TGI (UACC-257 melanoma): > 100 µM | TGI (DU-145 prostate): > 100 µM | TGI (U251 CNS): > 100 µM | TGI (KM12 colon): > 100 µM | TGI (HL-60(TB) leukemia): > 100 µM | TGI (MDA-MB-231 breast): 98.9 µM | TGI (SR leukemia): > 100 µM | TGI (786-0 renal): > 100 µM | TGI (T-47D breast): > 100 µM | TGI (OVCAR-3 ovarian): > 100 µM | TGI (HOP-92 NSCLC): 50.9 µM | TGI (COLO 205 colon): > 100 µM | TGI (SNB-19 CNS): > 100 µM | TGI (SW-620 colon): > 100 µM | TGI (HOP-62 NSCLC): > 100 µM | TGI (NCI-H460 lung): > 100 µM | TGI (SK-MEL-28 melanoma): > 100 µM | TGI (A498 renal): > 100 µM | TGI (SK-MEL-2 melanoma): 61.5 µM | TGI (M14 melanoma): > 100 µM | TGI (IGROV1 ovarian): > 100 µM | TGI (OVCAR-5 ovarian): > 100 µM | TGI (HS 578T breast): > 100 µM | TGI (MALME-3M melanoma): > 100 µM | TGI (UO-31 renal): > 100 µM | TGI (SK-MEL-5 melanoma): > 100 µM | TGI (MCF7 breast): > 100 µM | TGI (SF-539 CNS): 88 µM | TGI (OVCAR-4 ovarian): > 100 µM | TGI (CCRF-CEM leukemia): > 100 µM | TGI (EKVX NSCLC): > 100 µM | TGI (NCI/ADR-RES ovarian): > 100 µM | TGI (MDA-MB-435): > 100 µM | TGI (SF-268 CNS): > 100 µM | TGI (HCT-116 colon): > 100 µM | TGI (NCI-H522 lung): 73.7 µM | TGI (SN12C renal): > 100 µM | TGI (K-562 leukemia): > 100 µM | TGI (UACC-62 melanoma): > 100 µM | TGI (NCI-H23 lung): > 100 µM | TGI (CAKI-1 renal): > 100 µM | TGI (PC-3 prostate): > 100 µM | TGI (BT-549 breast): 98.8 µM | TGI (RPMI-8226 leukemia): > 100 µM | TGI (SF-295 CNS): > 100 µM | TGI (RXF 393 renal): > 100 µM
